The values that follow are results of earlier work, collected in patent publication EP1932526A1, “Morin, a new inhibitor of microbial hyaluronate lyase” (Leibniz-Institut für Naturstoff-Forschung und …, priority 2006, dated 2008).

Each structure is given as a SMILES string.

The conditions of the data set: species and route not given.

Turning to `O=c1c(O)c(-c2ccc(O)cc2O)oc2cc(O)cc(O)c12` [morin, 2',3,4',5,7-pentahydroxyflavone], the LD50 value is 555 mg/kg.
